Among the targets are Cannabinoid receptor 1 (Homo sapiens, UniProt P21554); Mu-type opioid receptor (Homo sapiens, UniProt P35372); Vasopressin V2 receptor (Homo sapiens, UniProt P30518); Histamine H3 receptor (Homo sapiens, UniProt Q9Y5N1).
Test [1] addresses T1, 5-hydroxytryptamine receptor 1A (Homo sapiens, UniProt P08908).
T1 sequence (P08908 whole entry): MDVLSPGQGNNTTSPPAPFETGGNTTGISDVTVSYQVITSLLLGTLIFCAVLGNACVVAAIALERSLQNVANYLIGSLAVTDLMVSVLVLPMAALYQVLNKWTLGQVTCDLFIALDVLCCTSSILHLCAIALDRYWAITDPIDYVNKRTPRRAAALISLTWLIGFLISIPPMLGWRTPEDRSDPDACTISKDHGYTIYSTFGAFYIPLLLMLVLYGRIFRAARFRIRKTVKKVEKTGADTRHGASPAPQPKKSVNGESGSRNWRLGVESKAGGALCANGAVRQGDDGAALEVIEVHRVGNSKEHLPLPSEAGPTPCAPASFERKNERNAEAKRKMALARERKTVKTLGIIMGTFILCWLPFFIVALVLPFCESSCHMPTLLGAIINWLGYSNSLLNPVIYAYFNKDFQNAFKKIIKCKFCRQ
The test is classed as functional, cell-based.

Test [2] concerns the target Gamma-aminobutyric acid receptor subunit alpha-1 (Rattus norvegicus, UniProt P62813).
For test [3], the target named is T2, Muscarinic acetylcholine receptor M2 (Homo sapiens, UniProt P08172).
T2 sequence (P08172 whole entry): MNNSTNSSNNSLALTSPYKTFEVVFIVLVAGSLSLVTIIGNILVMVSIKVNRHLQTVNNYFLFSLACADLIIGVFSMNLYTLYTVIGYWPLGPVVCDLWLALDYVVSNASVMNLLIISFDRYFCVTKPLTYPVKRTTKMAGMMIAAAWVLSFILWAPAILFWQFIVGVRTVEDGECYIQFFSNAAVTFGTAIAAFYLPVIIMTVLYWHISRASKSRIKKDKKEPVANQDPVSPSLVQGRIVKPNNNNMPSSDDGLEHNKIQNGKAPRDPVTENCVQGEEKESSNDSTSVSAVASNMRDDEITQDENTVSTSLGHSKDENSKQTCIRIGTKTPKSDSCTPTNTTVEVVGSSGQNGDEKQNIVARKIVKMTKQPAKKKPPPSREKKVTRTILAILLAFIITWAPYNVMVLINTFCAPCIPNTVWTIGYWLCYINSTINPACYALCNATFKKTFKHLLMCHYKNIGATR
The test is classed as functional, cell-based.

Test [4] addresses T3, Alpha-1A adrenergic receptor (Homo sapiens, UniProt P35348).
T3 sequence (P35348 whole entry): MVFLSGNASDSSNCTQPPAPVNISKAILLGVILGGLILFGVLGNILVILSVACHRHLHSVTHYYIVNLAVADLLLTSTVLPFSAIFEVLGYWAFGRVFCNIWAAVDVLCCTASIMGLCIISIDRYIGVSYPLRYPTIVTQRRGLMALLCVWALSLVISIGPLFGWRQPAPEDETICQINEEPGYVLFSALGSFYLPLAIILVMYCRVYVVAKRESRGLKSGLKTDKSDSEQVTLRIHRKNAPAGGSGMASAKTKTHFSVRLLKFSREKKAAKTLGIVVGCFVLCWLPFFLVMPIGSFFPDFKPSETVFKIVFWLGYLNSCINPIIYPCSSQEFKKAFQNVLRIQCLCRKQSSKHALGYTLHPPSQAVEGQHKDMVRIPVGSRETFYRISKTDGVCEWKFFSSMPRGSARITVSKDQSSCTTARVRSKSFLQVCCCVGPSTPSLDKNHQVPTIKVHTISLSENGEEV
It is filed as functional, cell-based.

The target in test [5] is Beta-2 adrenergic receptor (Homo sapiens, UniProt P07550).
Test [6] has as its target T2, Muscarinic acetylcholine receptor M2.
The target of test [7] is Prostaglandin G/H synthase 1 (Homo sapiens, UniProt P23219). It is filed as functional.
For test [8], the target named is T4, Progesterone receptor (Homo sapiens, UniProt P06401).
T4 sequence (P06401 whole entry): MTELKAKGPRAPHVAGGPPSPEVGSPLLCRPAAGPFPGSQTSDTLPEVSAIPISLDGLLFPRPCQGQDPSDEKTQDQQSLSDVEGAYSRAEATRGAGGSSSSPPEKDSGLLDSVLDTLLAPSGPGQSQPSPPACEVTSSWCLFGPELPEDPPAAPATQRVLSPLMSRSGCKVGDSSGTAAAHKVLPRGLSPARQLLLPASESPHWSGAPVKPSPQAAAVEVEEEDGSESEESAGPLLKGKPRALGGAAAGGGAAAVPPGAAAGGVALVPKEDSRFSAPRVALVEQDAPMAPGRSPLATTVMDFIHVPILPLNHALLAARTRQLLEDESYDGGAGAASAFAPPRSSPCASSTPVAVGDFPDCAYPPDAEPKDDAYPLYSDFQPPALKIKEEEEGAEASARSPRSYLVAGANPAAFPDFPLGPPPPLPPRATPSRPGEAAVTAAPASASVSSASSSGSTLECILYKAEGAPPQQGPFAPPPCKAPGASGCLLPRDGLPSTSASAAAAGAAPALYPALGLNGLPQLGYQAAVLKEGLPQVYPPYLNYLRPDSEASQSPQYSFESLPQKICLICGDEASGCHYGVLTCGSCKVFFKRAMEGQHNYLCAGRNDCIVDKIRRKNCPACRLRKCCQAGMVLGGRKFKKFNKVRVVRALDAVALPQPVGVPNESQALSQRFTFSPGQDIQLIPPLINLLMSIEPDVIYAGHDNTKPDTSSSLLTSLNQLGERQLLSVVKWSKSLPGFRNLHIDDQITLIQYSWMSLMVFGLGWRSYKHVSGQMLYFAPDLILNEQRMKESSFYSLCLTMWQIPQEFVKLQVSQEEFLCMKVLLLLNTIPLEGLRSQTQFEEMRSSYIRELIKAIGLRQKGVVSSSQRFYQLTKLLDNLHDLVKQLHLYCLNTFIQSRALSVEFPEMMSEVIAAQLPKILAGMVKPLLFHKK
It is filed as functional.

Test [9] concerns the target T4, Progesterone receptor. It is filed as functional. The source holds these as a separate data set.
Note: assay procedure not described here.

Chain of Beta-2 adrenergic receptor (P07550 whole entry): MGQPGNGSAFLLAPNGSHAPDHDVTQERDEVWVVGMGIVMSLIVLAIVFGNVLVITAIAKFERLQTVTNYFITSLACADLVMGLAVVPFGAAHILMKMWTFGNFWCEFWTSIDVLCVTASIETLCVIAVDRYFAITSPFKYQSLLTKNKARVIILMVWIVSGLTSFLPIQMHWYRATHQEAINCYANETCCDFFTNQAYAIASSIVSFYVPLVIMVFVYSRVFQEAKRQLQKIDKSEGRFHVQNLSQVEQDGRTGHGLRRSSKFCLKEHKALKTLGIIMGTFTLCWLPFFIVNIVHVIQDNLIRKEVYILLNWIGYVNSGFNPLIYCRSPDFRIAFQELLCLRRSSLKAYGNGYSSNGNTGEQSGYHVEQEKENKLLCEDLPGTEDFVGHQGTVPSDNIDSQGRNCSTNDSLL
Chain of Mu-type opioid receptor (P35372 whole entry): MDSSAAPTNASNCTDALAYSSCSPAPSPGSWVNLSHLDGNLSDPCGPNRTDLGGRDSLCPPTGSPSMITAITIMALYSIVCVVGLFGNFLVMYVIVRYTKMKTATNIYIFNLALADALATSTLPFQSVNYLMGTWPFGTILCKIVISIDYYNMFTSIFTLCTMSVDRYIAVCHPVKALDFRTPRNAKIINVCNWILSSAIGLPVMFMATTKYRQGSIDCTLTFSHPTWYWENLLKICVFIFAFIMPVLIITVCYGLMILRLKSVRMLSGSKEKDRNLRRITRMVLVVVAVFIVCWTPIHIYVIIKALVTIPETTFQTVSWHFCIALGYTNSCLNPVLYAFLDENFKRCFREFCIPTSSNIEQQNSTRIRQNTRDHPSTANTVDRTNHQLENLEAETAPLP
Chain of Gamma-aminobutyric acid receptor subunit alpha-1 (P62813 whole entry): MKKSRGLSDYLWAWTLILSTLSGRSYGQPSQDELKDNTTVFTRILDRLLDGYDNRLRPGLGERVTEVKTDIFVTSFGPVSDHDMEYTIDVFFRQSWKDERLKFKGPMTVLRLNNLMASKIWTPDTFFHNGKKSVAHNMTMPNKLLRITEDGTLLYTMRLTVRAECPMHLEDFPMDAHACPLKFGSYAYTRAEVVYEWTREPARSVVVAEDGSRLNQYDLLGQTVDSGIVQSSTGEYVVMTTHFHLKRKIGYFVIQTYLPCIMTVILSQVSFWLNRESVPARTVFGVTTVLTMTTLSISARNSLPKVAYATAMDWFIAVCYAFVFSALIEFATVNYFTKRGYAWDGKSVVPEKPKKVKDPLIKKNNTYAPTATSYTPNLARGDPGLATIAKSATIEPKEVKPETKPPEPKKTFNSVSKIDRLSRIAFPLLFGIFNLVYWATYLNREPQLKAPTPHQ
Chain of Cannabinoid receptor 1 (P21554 whole entry): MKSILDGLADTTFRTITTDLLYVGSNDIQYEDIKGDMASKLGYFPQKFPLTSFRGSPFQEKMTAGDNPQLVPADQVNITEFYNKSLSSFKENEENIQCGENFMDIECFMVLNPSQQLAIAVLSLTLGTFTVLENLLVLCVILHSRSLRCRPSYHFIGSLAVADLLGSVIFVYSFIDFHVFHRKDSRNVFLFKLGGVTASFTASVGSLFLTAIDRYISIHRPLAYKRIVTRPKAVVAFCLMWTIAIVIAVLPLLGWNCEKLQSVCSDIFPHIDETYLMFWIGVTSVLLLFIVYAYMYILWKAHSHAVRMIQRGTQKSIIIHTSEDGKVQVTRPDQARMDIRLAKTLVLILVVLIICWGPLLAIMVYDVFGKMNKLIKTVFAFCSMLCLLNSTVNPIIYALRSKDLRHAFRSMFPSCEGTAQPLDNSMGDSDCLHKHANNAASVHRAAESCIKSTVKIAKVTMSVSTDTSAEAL
Chain of Prostaglandin G/H synthase 1 (P23219 whole entry): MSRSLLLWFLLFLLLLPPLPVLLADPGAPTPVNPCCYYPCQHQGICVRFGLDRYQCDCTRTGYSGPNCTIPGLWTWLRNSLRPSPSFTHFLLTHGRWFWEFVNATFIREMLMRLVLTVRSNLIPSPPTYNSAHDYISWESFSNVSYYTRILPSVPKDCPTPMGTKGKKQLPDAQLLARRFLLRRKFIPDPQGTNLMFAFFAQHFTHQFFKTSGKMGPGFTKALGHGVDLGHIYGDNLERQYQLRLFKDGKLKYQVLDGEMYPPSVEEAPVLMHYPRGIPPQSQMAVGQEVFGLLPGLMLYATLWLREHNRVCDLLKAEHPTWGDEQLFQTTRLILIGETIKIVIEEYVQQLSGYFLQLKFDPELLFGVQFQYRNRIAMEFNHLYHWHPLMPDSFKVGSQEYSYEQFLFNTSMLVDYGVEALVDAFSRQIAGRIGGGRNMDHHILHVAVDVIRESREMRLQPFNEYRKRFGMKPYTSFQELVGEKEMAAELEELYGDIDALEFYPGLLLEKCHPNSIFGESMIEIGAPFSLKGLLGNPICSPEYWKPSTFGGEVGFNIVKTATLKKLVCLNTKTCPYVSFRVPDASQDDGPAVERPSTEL
Chain of Histamine H3 receptor (Q9Y5N1 whole entry): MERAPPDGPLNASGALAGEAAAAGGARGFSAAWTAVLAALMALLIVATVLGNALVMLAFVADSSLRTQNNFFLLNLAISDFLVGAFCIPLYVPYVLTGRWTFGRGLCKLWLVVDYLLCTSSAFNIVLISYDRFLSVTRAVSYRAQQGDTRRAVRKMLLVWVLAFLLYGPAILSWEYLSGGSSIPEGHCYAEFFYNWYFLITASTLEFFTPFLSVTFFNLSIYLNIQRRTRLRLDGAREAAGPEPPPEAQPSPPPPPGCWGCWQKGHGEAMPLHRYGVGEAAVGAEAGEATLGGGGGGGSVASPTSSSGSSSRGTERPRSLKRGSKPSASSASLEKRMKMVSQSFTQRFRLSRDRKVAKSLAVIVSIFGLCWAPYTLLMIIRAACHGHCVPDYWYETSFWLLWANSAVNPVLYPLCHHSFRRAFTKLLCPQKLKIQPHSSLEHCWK
Chain of Vasopressin V2 receptor (P30518 whole entry): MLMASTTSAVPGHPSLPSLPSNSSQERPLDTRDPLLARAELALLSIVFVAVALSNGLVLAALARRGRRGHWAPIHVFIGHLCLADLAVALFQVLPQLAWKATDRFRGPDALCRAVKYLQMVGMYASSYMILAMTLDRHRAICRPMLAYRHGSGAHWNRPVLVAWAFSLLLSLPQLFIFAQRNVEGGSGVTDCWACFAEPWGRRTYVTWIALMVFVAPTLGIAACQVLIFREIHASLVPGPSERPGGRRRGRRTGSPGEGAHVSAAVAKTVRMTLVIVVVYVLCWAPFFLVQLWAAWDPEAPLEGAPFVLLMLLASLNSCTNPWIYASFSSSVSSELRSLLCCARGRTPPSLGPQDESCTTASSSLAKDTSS

Broadly, the AC50 is the concentration giving half of the maximal activity seen. A low value points to greater potency. With `CC(C(=O)O)c1ccc(N2CC=CC2)c(Cl)c1` (stereo not drawn) [PIRPROFEN], the AC50 in [1] was over 10 µM; in [2], over 10 µM; at Cannabinoid receptor 1, over 10 µM; in test [3], over 10 µM; in test [4], over 30 µM; in [5], over 10 µM. The AC50 is over 30 µM at Mu-type opioid receptor; over 30 µM in test [6]; over 30 µM at Vasopressin V2 receptor; over 10 µM on Histamine H3 receptor; 0.115 µM in test [7].
In the case of `Oc1ncnc2[nH]ncc12` [ALLOPURINOL], the concentration at half-maximal activity (AC50) in [1] was over 10 µM; in test [2], over 10 µM; on Cannabinoid receptor 1, over 10 µM; in test [3], over 10 µM; in [4], over 30 µM; in test [5], over 10 µM. The AC50 (at Mu-type opioid receptor; in [6]; at Vasopressin V2 receptor; at Histamine H3 receptor; in test [7]) was over 30 µM each time.
In the case of `CC(C)C(=O)Nc1ccc([N+](=O)[O-])c(C(F)(F)F)c1` [FLUTAMIDE], the AC50 (in test [1]; on Progesterone receptor [8]; in test [2]; at Cannabinoid receptor 1; in [3]; at Progesterone receptor [9]) was over 10 µM in each case. For the same compound, the AC50 in [4] is 9.04 µM; in test [5] it was over 10 µM; on Mu-type opioid receptor, over 30 µM; in test [6], over 30 µM; at Vasopressin V2 receptor, over 30 µM; on Histamine H3 receptor, over 30 µM. In [7], this compound registered an AC50 of over 30 µM.
For the compound `CN(CCOc1ccc(NS(C)(=O)=O)cc1)CCc1ccc(NS(C)(=O)=O)cc1` [DOFETILIDE], the AC50 in [1] is over 10 µM; in test [2], over 10 µM; on Cannabinoid receptor 1, over 10 µM; in [3] it was over 30 µM; in test [4] it was over 30 µM; in [5] it was over 10 µM. In addition, the AC50 on Mu-type opioid receptor was over 30 µM; in [6], 6.73 µM; at Vasopressin V2 receptor, over 30 µM; at Histamine H3 receptor it was over 10 µM; in test [7], over 30 µM.
As to `NC(=O)c1cnccn1` [PYRAZINAMIDE], the AC50 in [1] is over 10 µM; on Progesterone receptor [8], over 30 µM; in test [2], over 30 µM; at Cannabinoid receptor 1, over 30 µM; in [3], over 30 µM; at Progesterone receptor [9], over 30 µM. The AC50 (in [4]; in test [5]; on Mu-type opioid receptor; in test [6]; on Vasopressin V2 receptor; on Histamine H3 receptor) was over 30 µM in each case. In [7], this compound registered an AC50 of over 30 µM.
As for `Nc1nc(N)c2nc(-c3ccccc3)c(N)nc2n1`, the AC50 in test [1] is over 10 µM; in test [2], over 30 µM; at Cannabinoid receptor 1 it was over 30 µM; in [3], over 30 µM; on Progesterone receptor [9] it was over 30 µM; in [4], over 30 µM. Further, the AC50 in test [5] is over 30 µM; at Mu-type opioid receptor it was 29.1 µM; in test [6], over 30 µM; on Vasopressin V2 receptor, over 30 µM; at Histamine H3 receptor, over 30 µM; in test [7], over 30 µM.
In the case of `C[C@H]1O[C@H](O[C@H]2[C@H](O)[C@@H](O)[C@@H](O[C@H]3[C@H](O)[C@@H](O)C(O)O[C@@H]3CO)O[C@@H]2CO)[C@H](O)[C@@H](O)[C@@H]1N[C@H]1C=C(CO)[C@@H](O)[C@H](O)[C@H]1O` (stereo partly drawn) [ACARBOSE], the AC50 in test [1] is over 10 µM; at Progesterone receptor [8], over 30 µM; on Cannabinoid receptor 1, over 10 µM; in test [3], over 10 µM; at Progesterone receptor [9] it was over 30 µM; in test [4] it was over 30 µM. Moreover, the AC50 was over 30 µM in test [5]; over 30 µM at Mu-type opioid receptor; over 30 µM in [6]; over 30 µM at Vasopressin V2 receptor; over 30 µM at Histamine H3 receptor; 24.4 µM in test [7].

Values taken from ChEMBL document CHEMBL5291721, “A preclinical secondary pharmacology resource illuminates target-adverse drug reaction associations of marketed drugs” (Nat Commun, 2023).
